ChEMBL document CHEMBL1201862, “PubChem BioAssay data set” (2004)
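Briefly, cells in 96-well plates were exposed to five compound concentrations for 48 h, and endpoints were estimated by linear interpolation. At the GI50, growth is halved.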 Active and inactive are the calls of the source. Cut-off read from the data, not from the text of the source: active = GI50 up to about 1.1 µM and inactive = higher.

Experiments:
Assay in all cases: DTP human tumour cell line panel, 48 h
SF-539 = tested on: SF-539
NCI-H226 = tested on: NCI-H226
HCT-15 = tested on: HCT-15
ACHN = tested on: ACHN
SK-MEL-5 = tested on: SK-MEL-5
786-0 = tested on: 786-0
MOLT-4 = tested on: MOLT-4
OVCAR-4 = tested on: OVCAR-4
EKVX = tested on: EKVX
HCC 2998 = tested on: HCC 2998
SNB-75 = tested on: SNB-75
Malme-3M = tested on: Malme-3M
U-251 = tested on: U-251
SR = tested on: SR
SK-OV-3 = tested on: SK-OV-3
SNB-19 = tested on: SNB-19
A498 = tested on: A498
SN12C = tested on: SN12C

Which results are given for COC(=O)C(=C\Sc1ccccc1)/C=C/C(=O)OC(C)(C)C?
GI50 (SF-539): 13.6 µM (inactive); GI50 (NCI-H226): 15.6 µM (inactive); GI50 (HCT-15): 6.67 µM; GI50 (ACHN): 7.23 µM (inactive); GI50 (SK-MEL-5): 15 µM (inactive); GI50 (786-0): 5.27 µM (inactive); GI50 (MOLT-4): 2.84 µM (inactive); GI50 (OVCAR-4): 15 µM (inactive); GI50 (EKVX): 10.6 µM (inactive); GI50 (HCC 2998): 10.1 µM (inactive); GI50 (SNB-75): 14 µM (inactive); GI50 (Malme-3M): 15.9 µM (inactive); GI50 (U-251): 14.5 µM (inactive); GI50 (SR): 2.87 µM (inactive); GI50 (SK-OV-3): 24 µM (inactive); GI50 (SNB-19): 4.08 µM (inactive)

Which results are given for Cc1ccc(O)c(C(=O)CCCC(=O)c2cc(C)ccc2O)c1?
GI50 (A498): > 100 µM (inactive); GI50 (SF-539): > 100 µM (inactive); GI50 (NCI-H226): > 100 µM (inactive); GI50 (HCT-15): 45.8 µM; GI50 (ACHN): > 100 µM (inactive); GI50 (SN12C): > 100 µM (inactive); GI50 (SK-MEL-5): > 100 µM (inactive); GI50 (786-0): 38.3 µM (inactive); GI50 (MOLT-4): > 100 µM (inactive); GI50 (OVCAR-4): 74.5 µM (inactive); GI50 (EKVX): > 100 µM (inactive); GI50 (HCC 2998): 0.152 µM (active); GI50 (SNB-75): 81.5 µM (inactive); GI50 (Malme-3M): > 100 µM (inactive); GI50 (U-251): 52.4 µM (inactive); GI50 (SK-OV-3): > 100 µM (inactive); GI50 (SNB-19): 46.1 µM (inactive)

Which results are given for COC(=O)/C(C#N)=C1\CCc2ccccc21?
GI50 (A498): > 100 µM (inactive); GI50 (SF-539): > 100 µM (inactive); GI50 (NCI-H226): > 100 µM (inactive); GI50 (HCT-15): > 100 µM; GI50 (ACHN): > 100 µM (inactive); GI50 (SN12C): > 100 µM (inactive); GI50 (SK-MEL-5): > 100 µM (inactive); GI50 (786-0): > 100 µM (inactive); GI50 (MOLT-4): > 100 µM (inactive); GI50 (OVCAR-4): > 100 µM (inactive); GI50 (EKVX): > 100 µM (inactive); GI50 (HCC 2998): > 100 µM (inactive); GI50 (SNB-75): > 100 µM (inactive); GI50 (Malme-3M): > 100 µM (inactive); GI50 (SK-OV-3): > 100 µM (inactive); GI50 (SNB-19): > 100 µM (inactive)

With CCOC(=O)CN.CCOC(=O)Nc1ccc(S(=O)(=O)OC)cc1.CCOC(=O)Nc1ccc(S(=O)(=O)OC)cc1 as the compound, how does the GI50 (A498) read?
The GI50 was > 50 µM (inactive).

And the GI50 (SF-539)?
Its GI50 is > 50 µM (inactive).

What about the GI50 (NCI-H226) of the same compound?
The GI50 was > 50 µM (inactive).

What about the GI50 (HCT-15) of the same compound?
Its GI50 is greater than 50 µM.

And the GI50 (ACHN)?
The GI50 was > 50 µM (inactive).

And the GI50 (SN12C)?
Its GI50 is > 50 µM (inactive).

And the GI50 (SK-MEL-5)?
The GI50 was > 50 µM (inactive).

What about the GI50 (786-0) of the same compound?
Its GI50 is > 50 µM (inactive).

What about the GI50 (MOLT-4) of the same compound?
Its GI50 is > 50 µM (inactive).

What about the GI50 (OVCAR-4) of the same compound?
Its GI50 is > 50 µM (inactive).

And the GI50 (EKVX)?
The GI50 was > 50 µM (inactive).

What about the GI50 (HCC 2998) of the same compound?
The GI50 was > 50 µM (inactive).

What about the GI50 (SNB-75) of the same compound?
The GI50 was > 50 µM (inactive).

And the GI50 (Malme-3M)?
Its GI50 is > 50 µM (inactive).

What about the GI50 (U-251) of the same compound?
Its GI50 is 9.25 µM (inactive).

What about the GI50 (SK-OV-3) of the same compound?
The GI50 was > 50 µM (inactive).

What about the GI50 (SNB-19) of the same compound?
Its GI50 is > 50 µM (inactive).

N#Cc1c2nc3ccccc3nc2n2ccccc12 was tested. Which GI50 (A498) did it give?
Its GI50 is 76 µM (inactive).

What about the GI50 (SF-539) of the same compound?
The GI50 was > 100 µM (inactive).

What about the GI50 (HCT-15) of the same compound?
Its GI50 is greater than 100 µM.

And the GI50 (ACHN)?
Its GI50 is > 100 µM (inactive).

What about the GI50 (SN12C) of the same compound?
Its GI50 is > 100 µM (inactive).

What about the GI50 (SK-MEL-5) of the same compound?
The GI50 was > 100 µM (inactive).

What about the GI50 (786-0) of the same compound?
Its GI50 is > 100 µM (inactive).

What about the GI50 (MOLT-4) of the same compound?
The GI50 was > 100 µM (inactive).

What about the GI50 (OVCAR-4) of the same compound?
The GI50 was > 100 µM (inactive).

What about the GI50 (EKVX) of the same compound?
Its GI50 is > 100 µM (inactive).

What about the GI50 (HCC 2998) of the same compound?
The GI50 was > 100 µM (inactive).

And the GI50 (SNB-75)?
Its GI50 is > 100 µM (inactive).

And the GI50 (Malme-3M)?
Its GI50 is > 100 µM (inactive).

What about the GI50 (U-251) of the same compound?
Its GI50 is > 100 µM (inactive).

And the GI50 (SR)?
Its GI50 is > 100 µM (inactive).

And the GI50 (SK-OV-3)?
Its GI50 is 0.63 µM (active).

What about the GI50 (SNB-19) of the same compound?
The GI50 was > 100 µM (inactive).

O=C1C(Cl)C(c2cc(Br)ccc2O)N1n1cnc2ccccc2c1=O (stereo not drawn) was tested. Which GI50 (A498) did it give?
Its GI50 is 65.8 µM (inactive).

What about the GI50 (SF-539) of the same compound?
The GI50 was 18.5 µM (inactive).

And the GI50 (NCI-H226)?
The GI50 was 6.87 µM (inactive).

And the GI50 (HCT-15)?
Its GI50 is 5.13 µM.

What about the GI50 (ACHN) of the same compound?
The GI50 was 11.8 µM (inactive).

What about the GI50 (SN12C) of the same compound?
Its GI50 is 20 µM (inactive).

And the GI50 (SK-MEL-5)?
Its GI50 is 16.8 µM (inactive).

And the GI50 (786-0)?
Its GI50 is 17.3 µM (inactive).

And the GI50 (MOLT-4)?
The GI50 was 2.75 µM (inactive).

What about the GI50 (OVCAR-4) of the same compound?
Its GI50 is 10.7 µM (inactive).

And the GI50 (EKVX)?
Its GI50 is 3.4 µM (inactive).

And the GI50 (HCC 2998)?
The GI50 was 17.4 µM (inactive).

What about the GI50 (SNB-75) of the same compound?
Its GI50 is 15.2 µM (inactive).

What about the GI50 (Malme-3M) of the same compound?
Its GI50 is 20.5 µM (inactive).

And the GI50 (U-251)?
Its GI50 is 10.7 µM (inactive).

And the GI50 (SR)?
The GI50 was 2.74 µM (inactive).

What about the GI50 (SK-OV-3) of the same compound?
Its GI50 is 20 µM (inactive).

And the GI50 (SNB-19)?
Its GI50 is 14.5 µM (inactive).

For Fc1ccc(C2SCc3nc4ccccc4n32)c(F)c1 (stereo not drawn), which GI50 (A498) is on record?
Its GI50 is > 100 µM (inactive).

And the GI50 (SF-539)?
Its GI50 is > 100 µM (inactive).

And the GI50 (NCI-H226)?
Its GI50 is > 100 µM (inactive).

What about the GI50 (HCT-15) of the same compound?
The GI50 was 49.4 µM.

What about the GI50 (ACHN) of the same compound?
The GI50 was 82.4 µM (inactive).

And the GI50 (SN12C)?
The GI50 was > 100 µM (inactive).

What about the GI50 (SK-MEL-5) of the same compound?
Its GI50 is 32.1 µM (inactive).

And the GI50 (786-0)?
Its GI50 is > 100 µM (inactive).

What about the GI50 (MOLT-4) of the same compound?
The GI50 was 30.5 µM (inactive).

And the GI50 (OVCAR-4)?
Its GI50 is 95.7 µM (inactive).

What about the GI50 (EKVX) of the same compound?
The GI50 was > 100 µM (inactive).

What about the GI50 (HCC 2998) of the same compound?
The GI50 was 98.6 µM (inactive).

What about the GI50 (SNB-75) of the same compound?
Its GI50 is > 100 µM (inactive).

And the GI50 (Malme-3M)?
Its GI50 is 80.4 µM (inactive).

And the GI50 (U-251)?
Its GI50 is 75.5 µM (inactive).

And the GI50 (SR)?
Its GI50 is 34.6 µM (inactive).

And the GI50 (SK-OV-3)?
Its GI50 is > 100 µM (inactive).

What about the GI50 (SNB-19) of the same compound?
The GI50 was > 100 µM (inactive).

What does the source list for Cn1ccc(=NS(=O)(=O)c2ccccc2)cc1?
GI50 (A498): > 100 µM (inactive); GI50 (SF-539): > 100 µM (inactive); GI50 (ACHN): > 100 µM (inactive); GI50 (SK-MEL-5): > 100 µM (inactive); GI50 (786-0): > 100 µM (inactive); GI50 (MOLT-4): > 100 µM (inactive); GI50 (EKVX): > 100 µM (inactive); GI50 (HCC 2998): > 100 µM (inactive); GI50 (SNB-75): > 100 µM (inactive); GI50 (Malme-3M): > 100 µM (inactive); GI50 (U-251): > 100 µM (inactive); GI50 (SK-OV-3): > 100 µM (inactive); GI50 (SNB-19): > 100 µM (inactive)

COc1ccc2nc3c(C(=O)NCCN(C)C)cccc3nc2c1 was tested. Which GI50 (A498) did it give?
The GI50 was 1.84 µM (inactive).

What about the GI50 (SF-539) of the same compound?
The GI50 was 2.51 µM (inactive).

And the GI50 (NCI-H226)?
The GI50 was 6.85 µM (inactive).

And the GI50 (HCT-15)?
The GI50 was 3.93 µM.

What about the GI50 (ACHN) of the same compound?
The GI50 was 3.94 µM (inactive).

What about the GI50 (SN12C) of the same compound?
The GI50 was 3.41 µM (inactive).

What about the GI50 (SK-MEL-5) of the same compound?
The GI50 was 4.31 µM (inactive).

What about the GI50 (786-0) of the same compound?
The GI50 was 7 µM (inactive).

What about the GI50 (MOLT-4) of the same compound?
Its GI50 is 3.63 µM (inactive).

What about the GI50 (OVCAR-4) of the same compound?
Its GI50 is 6.58 µM (inactive).

And the GI50 (EKVX)?
The GI50 was 3.86 µM (inactive).

What about the GI50 (HCC 2998) of the same compound?
The GI50 was 6.76 µM (inactive).

And the GI50 (SNB-75)?
The GI50 was 7.35 µM (inactive).

What about the GI50 (U-251) of the same compound?
Its GI50 is 5 µM (inactive).

And the GI50 (SK-OV-3)?
Its GI50 is 9.04 µM (inactive).

What about the GI50 (SNB-19) of the same compound?
The GI50 was 6.21 µM (inactive).
